Laboratory results from patent US20250082674A1, “METHODS OF TREATING COPPER METABOLISM-ASSOCIATED DISEASES OR DISORDERS” (priority 2021, published 2025).
Read-outs that look alike come from different tables or passages of the source.

Tests used:
^64Cu in blood = conditions: for Intravenously injected ^64Cu in the blood: Pre (before BC-TTM treatment)
Protocol: 15 minutes after intravenous administration of ^64Cu, a dynamic PET-MR scan was performed, followed by additional scans at 1, 2, 6, 20, 48, 54, and 68 hours. Venous blood samples were collected for quantitation of radioactivity at multiple time points.

[1] = in vivo
From the text: (§1) These participants had all intake (food and drink) and output (urine and feces) collected from Day-4 through Day-1 (baseline), from Day 1 through Day 8, and Day 25 through Day 39.

copper = tested on: copper
From the text: as §1

[2] = Study 301: adverse events in participants who switched from SoC to BC-TTM in the Extension Period; conditions: SoC Weeks 0-48 (N = 70), BC-TTM Weeks 49-96 (N = 61)

## Bis-choline tetrathiomolybdate [BC-TTM]
^64Cu in blood; 20 hours
  Intravenously injected ^64Cu in the blood: 0.32 (0.06)
^64Cu in blood; 48 hours
  Intravenously injected ^64Cu in the blood: 0.33
^64Cu in blood; 54 hours
  Intravenously injected ^64Cu in the blood: 0.28
^64Cu in blood; 68 hours
  Intravenously injected ^64Cu in the blood: 0.25
^64Cu in blood; WD patients, FIG. 31
  64Cu peak in blood and clearance from blood after treatment: higher peak in the blood and its clearance from blood was delayed
^64Cu in blood; WD patients, from 1 hour to 48 hours after intravenous 64Cu
  64Cu in the blood after versus before treatment: significantly more
[1]
  participants in whom dose escalation was not carried out due to elevation of liver enzymes: 2 participants
copper; Study 204, Day 1, 2 Hours Post-Dose
  Increase from Baseline in Directly Measured NCC, Mean (SD): 0.5004 (0.7105) μmol/L
copper; Study 204, Day 1, 4 Hours Post-Dose
  Increase from Baseline in Directly Measured NCC, Mean (SD): 1.96 (1.804) μmol/L
copper; Study 204, Day 1, 5 Hours Post-Dose
  Increase from Baseline in Directly Measured NCC, Mean (SD): 2.719 (2.534) μmol/L
copper; Study 204, Day 1, 6 Hours Post-Dose
  Increase from Baseline in Directly Measured NCC, Mean (SD): 2.324 (2.086) μmol/L
copper; Study 204, Day 1, 8 Hours Post-Dose
  Increase from Baseline in Directly Measured NCC, Mean (SD): 2.402 (2.183) μmol/L
copper; Study 204, Day 1, 12 Hours Post-Dose
  Increase from Baseline in Directly Measured NCC, Mean (SD): 1.725 (1.575) μmol/L
copper; Study 204, Day 1, 24 Hours Post-Dose
  Increase from Baseline in Directly Measured NCC, Mean (SD): 1.063 (1.074) μmol/L
copper; Study 204, Day 4, Pre-Dose
  Increase from Baseline in Directly Measured NCC, Mean (SD): 2.677 (1.297) μmol/L
copper; Study 204, Day 5, Pre-Dose
  Increase from Baseline in Directly Measured NCC, Mean (SD): 3.144 (1.37) μmol/L
copper; Study 204, Day 6, Pre-Dose
  Increase from Baseline in Directly Measured NCC, Mean (SD): 3.574 (1.57) μmol/L
copper; Study 204, Day 7, Pre-Dose
  Increase from Baseline in Directly Measured NCC, Mean (SD): 3.7 (1.709) μmol/L
copper; Study 204, Day 25, 2 Hours Post-Dose
  Increase from Baseline in Directly Measured NCC, Mean (SD): 2.551 (1.063) μmol/L
copper; Study 204, Day 25, 4 Hours Post-Dose
  Increase from Baseline in Directly Measured NCC, Mean (SD): 3.443 (2.008) μmol/L
copper; Study 204, Day 25, 5 Hours Post-Dose
  Increase from Baseline in Directly Measured NCC, Mean (SD): 3.38 (2.478) μmol/L
copper; Study 204, Day 25, 6 Hours Post-Dose
  Increase from Baseline in Directly Measured NCC, Mean (SD): 4.44 (2.949) μmol/L
copper; Study 204, Day 25, 8 Hours Post-Dose
  Increase from Baseline in Directly Measured NCC, Mean (SD): 5.101 (2.491) μmol/L
copper; Study 204, Day 25, 12 Hours Post-Dose
  Increase from Baseline in Directly Measured NCC, Mean (SD): 4.917 (2.463) μmol/L
copper; Study 204, Day 25, 24 Hours Post-Dose
  Increase from Baseline in Directly Measured NCC, Mean (SD): 3.438 (1.754) μmol/L
copper; Study 204, Day 25, −0.5 Hours
  Increase from Baseline in Directly Measured NCC, Mean (SD): 2.121 (0.611) μmol/L
copper; Study 204, Day 27, Pre-Dose
  Increase from Baseline in Directly Measured NCC, Mean (SD): 2.767 (1.755) μmol/L
copper; Study 204, Day 28, Pre-Dose
  Increase from Baseline in Directly Measured NCC, Mean (SD): 2.327 (1.376) μmol/L
copper; Study 204, Day 29, 2 Hours Post-Dose
  Increase from Baseline in Directly Measured NCC, Mean (SD): 2.814 (0.884) μmol/L
copper; Study 204, Day 29, 4 Hours Post-Dose
  Increase from Baseline in Directly Measured NCC, Mean (SD): 3.38 (1.494) μmol/L
copper; Study 204, Day 29, 5 Hours Post-Dose
  Increase from Baseline in Directly Measured NCC, Mean (SD): 4.078 (1.939) μmol/L
copper; Study 204, Day 29, 6 Hours Post-Dose
  Increase from Baseline in Directly Measured NCC, Mean (SD): 4.686 (2.237) μmol/L
copper; Study 204, Day 29, 8 Hours Post-Dose
  Increase from Baseline in Directly Measured NCC, Mean (SD): 5.305 (2.311) μmol/L
copper; Study 204, Day 29, 12 Hours Post-Dose
  Increase from Baseline in Directly Measured NCC, Mean (SD): 4.749 (2.205) μmol/L
copper; Study 204, Day 29, 24 Hours Post-Dose
  Increase from Baseline in Directly Measured NCC, Mean (SD): 3.543 (1.397) μmol/L
copper; Study 204, Day 29, −0.5 Hours
  Increase from Baseline in Directly Measured NCC, Mean (SD): 2.662 (1.209) μmol/L
copper; Study 204, Day 31, Pre-Dose
  Increase from Baseline in Directly Measured NCC, Mean (SD): 4.121 (2.779) μmol/L
copper; Study 204, Day 32, Pre-Dose (N=1)
  Increase from Baseline in Directly Measured NCC, Mean (SD): 8.131 (NA) μmol/L
copper; Study 204, Day 33, Pre-Dose
  Increase from Baseline in Directly Measured NCC, Mean (SD): 4.231 (4.114) μmol/L
copper; Study 204, Day 34, Pre-Dose
  Increase from Baseline in Directly Measured NCC, Mean (SD): 4.103 (3.872) μmol/L
copper; Study 204, Day 35, Pre-Dose
  Increase from Baseline in Directly Measured NCC, Mean (SD): 4.49 (4.526) μmol/L
copper; Study 204, Day 36, Pre-Dose
  Increase from Baseline in Directly Measured NCC, Mean (SD): 3.465 (3.016) μmol/L
copper; Study 204, Day 37, Pre-Dose
  Increase from Baseline in Directly Measured NCC, Mean (SD): 4.168 (4.069) μmol/L
copper; Study 204, Day 38, Pre-Dose (N=1)
  Increase from Baseline in Directly Measured NCC, Mean (SD): 7.643 (NA) μmol/L
copper; Study 204, Day 39, 2 Hours Post-Dose
  Increase from Baseline in Directly Measured NCC, Mean (SD): 3.816 (3.943) μmol/L
copper; Study 204, Day 39, 4 Hours Post-Dose
  Increase from Baseline in Directly Measured NCC, Mean (SD): 5.578 (5.922) μmol/L
copper; Study 204, Day 39, 5 Hours Post-Dose
  Increase from Baseline in Directly Measured NCC, Mean (SD): 6.26 (6.245) μmol/L
copper; Study 204, Day 39, 6 Hours Post-Dose
  Increase from Baseline in Directly Measured NCC, Mean (SD): 6.659 (5.704) μmol/L
copper; Study 204, Day 39, 8 Hours Post-Dose
  Increase from Baseline in Directly Measured NCC, Mean (SD): 7.32 (6.096) μmol/L
copper; Study 204, Day 39, 12 Hours Post-Dose
  Increase from Baseline in Directly Measured NCC, Mean (SD): 6.554 (4.695) μmol/L
copper; Study 204, Day 39, 24 Hours Post-Dose
  Increase from Baseline in Directly Measured NCC, Mean (SD): 4.545 (3.677) μmol/L
copper; Study 204, Day 39, −0.5 Hours
  Increase from Baseline in Directly Measured NCC, Mean (SD): 3.412 (3.688) μmol/L
[2]
  Musculoskeletal and connective tissue disorders, E events: 7
  Musculoskeletal and connective tissue disorders, N participants: 7
  Musculoskeletal and connective tissue disorders, participants (%): 11.5%
